{"source": "patent US20230333109A1", "about": "“COMPOSITION FOR DIAGNOSING INFECTIOUS DISEASES COMPRISING AGENT FOR MEASURING EXPRESSION LEVEL OF SREBP2” (KOREA RESEARCH INSTITUTE OF BIOSCIENCE AND BIOTECHNOLOGY, priority 2020, published 2023)", "system": "HUVECs", "test": "Vascular barrier destruction in HUVECs under LPS stimulation (FIG. 4G)", "format": "cell-based"}
{"compound": "CCN(CC)Cc1ccc(C(=O)N(CCc2ccccc2OC)[C@@H]2CCNC2)cc1", "note": "[PF-429242]", "values": [{"measurement": "vascular barrier destruction", "result": "inhibited vascular bather destruction"}]}
